Measurements reported in PubChem BioAssay AID1963829 (Molecular Pharmacology Branch, DTP, NCI, 2024).

test system: 935938-334-R-J1-PDC complex spheroid viability; test: Anticancer human tumor 935938-334-R-J1-PDC patient-derived small intestine adenocarcinoma cell line growth inhibition [POLQ]; conditions: curve of first compound; second compound 10 µM
Procedure, shortened: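 Patient-derived tumour cells were co-cultured with HUVEC and mesenchymal stem cells as multicellular spheroids at 37 °C. They were treated with POLQ inhibitors (novobiocin, ART-558, RP6685) alone or combined with other agents. Top concentrations were at or near clinical Cmax (otherwise 10 microM; SN-38 at 1 microM), decreasing in half-log steps.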
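Further: spheroids exposed to drugs for seven days before viability read.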
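Wherever viability, T/C is given: 100% = DMSO vehicle control wells.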

Compared with `COc1cc2cc(C(=O)CCC(=O)O)sc2cc1OC` + Cc1cccc(N(C)C(=O)C2C(O)CCN2c2nc(C)cc(C(F)(F)F)c2C#N)c1, `COc1cc(C2c3cc4c(cc3C(OC3OC5COC(C)OC5C(O)C3O)C3COC(=O)C23)OCO4)cc(OC)c1O` (configuration not stated) + Cc1cccc(N(C)C(=O)C2C(O)CCN2c2nc(C)cc(C(F)(F)F)c2C#N)c1 is lower in IC50: greater than 10000 nM for the first, 353 nM for the second. The second is the more potent here.

First: O=C(c1cc(Cc2n[nH]c(=O)c3ccccc23)ccc1F)N1CCN(C(=O)C2CC2)CC1 + COC1C(OC(N)=O)C(O)C(Oc2ccc3c(O)c(NC(=O)c4ccc(O)c(CC=C(C)C)c4)c(=O)oc3c2C)OC1(C)C
Second: O=C(Nc1ccc(O)c(NS(=O)(=O)c2ccc(F)cc2)c1)c1ccc(-c2ccccc2)cc1 + Cc1cccc(N(C)C(=O)C2C(O)CCN2c2nc(C)cc(C(F)(F)F)c2C#N)c1
The IC50 of the first is higher: greater than 10000 nM for the first, 8040 nM for the second.

Going from `CC1COCCN1c1cc(C2(S(C)(=N)=O)CC2)nc(-c2ccnc3[nH]ccc23)n1` (configuration not stated) + COC1C(OC(N)=O)C(O)C(Oc2ccc3c(O)c(NC(=O)c4ccc(O)c(CC=C(C)C)c4)c(=O)oc3c2C)OC1(C)C to `COc1cccc2c1C(=O)c1c(O)c3c(c(O)c1C2=O)CC(O)(C(=O)CO)CC3OC1CC(N)C(O)C(C)O1` (configuration not stated) + Cc1cccc(N(C)C(=O)C2C(O)CCN2c2nc(C)cc(C(F)(F)F)c2C#N)c1, the IC50 falls from 2130 nM to less than 31.6 nM. The second is the more potent here.

same assay, conditions: second compound 0.0316 µM; first compound 0.0316 µM; stronger effect = lower value

In order of falling viability, T/C:
1. COc1cc2cc(C(=O)CCC(=O)O)sc2cc1OC + Cc1cccc(N(C)C(=O)C2C(O)CCN2c2nc(C)cc(C(F)(F)F)c2C#N)c1  116%
2. O=C(Nc1ccc(O)c(NS(=O)(=O)c2ccc(F)cc2)c1)c1ccc(-c2ccccc2)cc1 + Cc1cccc(N(C)C(=O)C2C(O)CCN2c2nc(C)cc(C(F)(F)F)c2C#N)c1  116%
3. CC1COCCN1c1cc(C2(S(C)(=N)=O)CC2)nc(-c2ccnc3[nH]ccc23)n1 (configuration not stated) + COC1C(OC(N)=O)C(O)C(Oc2ccc3c(O)c(NC(=O)c4ccc(O)c(CC=C(C)C)c4)c(=O)oc3c2C)OC1(C)C  111%
4. COc1ccc([C@@H](O)c2cc(-c3ncnc4cc(N5CCOCC5)ccc34)c(F)cc2Cl)nn1 + COC1C(OC(N)=O)C(O)C(Oc2ccc3c(O)c(NC(=O)c4ccc(O)c(CC=C(C)C)c4)c(=O)oc3c2C)OC1(C)C  96.2%
5. COc1cc(C2c3cc4c(cc3C(OC3OC5COC(C)OC5C(O)C3O)C3COC(=O)C23)OCO4)cc(OC)c1O (configuration not stated) + Cc1cccc(N(C)C(=O)C2C(O)CCN2c2nc(C)cc(C(F)(F)F)c2C#N)c1  89.9%
6. O=C(c1cc(Cc2n[nH]c(=O)c3ccccc23)ccc1F)N1CCN(C(=O)C2CC2)CC1 + COC1C(OC(N)=O)C(O)C(Oc2ccc3c(O)c(NC(=O)c4ccc(O)c(CC=C(C)C)c4)c(=O)oc3c2C)OC1(C)C  83.4%
7. COc1cccc2c1C(=O)c1c(O)c3c(c(O)c1C2=O)CC(O)(C(=O)CO)CC3OC1CC(N)C(O)C(C)O1 (configuration not stated) + Cc1cccc(N(C)C(=O)C2C(O)CCN2c2nc(C)cc(C(F)(F)F)c2C#N)c1  60.2%
8. Nc1ccn(C2OC(CO)C(O)C2(F)F)c(=O)n1 (configuration not stated) + Cc1cccc(N(C)C(=O)C2C(O)CCN2c2nc(C)cc(C(F)(F)F)c2C#N)c1  40.4%

same assay, conditions: second compound 0.0316 µM; first compound 0.1 µM; stronger effect = lower value

In order of rising viability, T/C:
1. Nc1ccn(C2OC(CO)C(O)C2(F)F)c(=O)n1 (configuration not stated) + Cc1cccc(N(C)C(=O)C2C(O)CCN2c2nc(C)cc(C(F)(F)F)c2C#N)c1  27.8%
2. COc1cccc2c1C(=O)c1c(O)c3c(c(O)c1C2=O)CC(O)(C(=O)CO)CC3OC1CC(N)C(O)C(C)O1 (configuration not stated) + Cc1cccc(N(C)C(=O)C2C(O)CCN2c2nc(C)cc(C(F)(F)F)c2C#N)c1  35.3%
3. COc1cc2cc(C(=O)CCC(=O)O)sc2cc1OC + Cc1cccc(N(C)C(=O)C2C(O)CCN2c2nc(C)cc(C(F)(F)F)c2C#N)c1  84.3%
4. CC1COCCN1c1cc(C2(S(C)(=N)=O)CC2)nc(-c2ccnc3[nH]ccc23)n1 (configuration not stated) + COC1C(OC(N)=O)C(O)C(Oc2ccc3c(O)c(NC(=O)c4ccc(O)c(CC=C(C)C)c4)c(=O)oc3c2C)OC1(C)C  85.8%
5. O=C(c1cc(Cc2n[nH]c(=O)c3ccccc23)ccc1F)N1CCN(C(=O)C2CC2)CC1 + COC1C(OC(N)=O)C(O)C(Oc2ccc3c(O)c(NC(=O)c4ccc(O)c(CC=C(C)C)c4)c(=O)oc3c2C)OC1(C)C  89.7%
6. O=C(Nc1ccc(O)c(NS(=O)(=O)c2ccc(F)cc2)c1)c1ccc(-c2ccccc2)cc1 + Cc1cccc(N(C)C(=O)C2C(O)CCN2c2nc(C)cc(C(F)(F)F)c2C#N)c1  91%
7. COc1cc(C2c3cc4c(cc3C(OC3OC5COC(C)OC5C(O)C3O)C3COC(=O)C23)OCO4)cc(OC)c1O (configuration not stated) + Cc1cccc(N(C)C(=O)C2C(O)CCN2c2nc(C)cc(C(F)(F)F)c2C#N)c1  112%
8. COc1ccc([C@@H](O)c2cc(-c3ncnc4cc(N5CCOCC5)ccc34)c(F)cc2Cl)nn1 + COC1C(OC(N)=O)C(O)C(Oc2ccc3c(O)c(NC(=O)c4ccc(O)c(CC=C(C)C)c4)c(=O)oc3c2C)OC1(C)C  131%

same assay, conditions: second compound 0.0316 µM; first compound 0.316 µM; stronger effect = lower value

In order of falling viability, T/C:
1. COc1ccc([C@@H](O)c2cc(-c3ncnc4cc(N5CCOCC5)ccc34)c(F)cc2Cl)nn1 + COC1C(OC(N)=O)C(O)C(Oc2ccc3c(O)c(NC(=O)c4ccc(O)c(CC=C(C)C)c4)c(=O)oc3c2C)OC1(C)C  106%
2. O=C(Nc1ccc(O)c(NS(=O)(=O)c2ccc(F)cc2)c1)c1ccc(-c2ccccc2)cc1 + Cc1cccc(N(C)C(=O)C2C(O)CCN2c2nc(C)cc(C(F)(F)F)c2C#N)c1  99.3%
3. COc1cc2cc(C(=O)CCC(=O)O)sc2cc1OC + Cc1cccc(N(C)C(=O)C2C(O)CCN2c2nc(C)cc(C(F)(F)F)c2C#N)c1  88.5%
4. O=C(c1cc(Cc2n[nH]c(=O)c3ccccc23)ccc1F)N1CCN(C(=O)C2CC2)CC1 + COC1C(OC(N)=O)C(O)C(Oc2ccc3c(O)c(NC(=O)c4ccc(O)c(CC=C(C)C)c4)c(=O)oc3c2C)OC1(C)C  87.5%
5. CC1COCCN1c1cc(C2(S(C)(=N)=O)CC2)nc(-c2ccnc3[nH]ccc23)n1 (configuration not stated) + COC1C(OC(N)=O)C(O)C(Oc2ccc3c(O)c(NC(=O)c4ccc(O)c(CC=C(C)C)c4)c(=O)oc3c2C)OC1(C)C  85.7%
6. COc1cc(C2c3cc4c(cc3C(OC3OC5COC(C)OC5C(O)C3O)C3COC(=O)C23)OCO4)cc(OC)c1O (configuration not stated) + Cc1cccc(N(C)C(=O)C2C(O)CCN2c2nc(C)cc(C(F)(F)F)c2C#N)c1  65.5%
7. COc1cccc2c1C(=O)c1c(O)c3c(c(O)c1C2=O)CC(O)(C(=O)CO)CC3OC1CC(N)C(O)C(C)O1 (configuration not stated) + Cc1cccc(N(C)C(=O)C2C(O)CCN2c2nc(C)cc(C(F)(F)F)c2C#N)c1  34.6%
8. Nc1ccn(C2OC(CO)C(O)C2(F)F)c(=O)n1 (configuration not stated) + Cc1cccc(N(C)C(=O)C2C(O)CCN2c2nc(C)cc(C(F)(F)F)c2C#N)c1  23.1%

same assay, conditions: second compound 0.0316 µM; first compound 1 µM; stronger effect = lower value

In order of rising viability, T/C:
1. Nc1ccn(C2OC(CO)C(O)C2(F)F)c(=O)n1 (configuration not stated) + Cc1cccc(N(C)C(=O)C2C(O)CCN2c2nc(C)cc(C(F)(F)F)c2C#N)c1  21%
2. COc1cccc2c1C(=O)c1c(O)c3c(c(O)c1C2=O)CC(O)(C(=O)CO)CC3OC1CC(N)C(O)C(C)O1 (configuration not stated) + Cc1cccc(N(C)C(=O)C2C(O)CCN2c2nc(C)cc(C(F)(F)F)c2C#N)c1  21.2%
3. COc1cc(C2c3cc4c(cc3C(OC3OC5COC(C)OC5C(O)C3O)C3COC(=O)C23)OCO4)cc(OC)c1O (configuration not stated) + Cc1cccc(N(C)C(=O)C2C(O)CCN2c2nc(C)cc(C(F)(F)F)c2C#N)c1  41.6%
4. CC1COCCN1c1cc(C2(S(C)(=N)=O)CC2)nc(-c2ccnc3[nH]ccc23)n1 (configuration not stated) + COC1C(OC(N)=O)C(O)C(Oc2ccc3c(O)c(NC(=O)c4ccc(O)c(CC=C(C)C)c4)c(=O)oc3c2C)OC1(C)C  59.5%
5. COc1ccc([C@@H](O)c2cc(-c3ncnc4cc(N5CCOCC5)ccc34)c(F)cc2Cl)nn1 + COC1C(OC(N)=O)C(O)C(Oc2ccc3c(O)c(NC(=O)c4ccc(O)c(CC=C(C)C)c4)c(=O)oc3c2C)OC1(C)C  76.4%
6. COc1cc2cc(C(=O)CCC(=O)O)sc2cc1OC + Cc1cccc(N(C)C(=O)C2C(O)CCN2c2nc(C)cc(C(F)(F)F)c2C#N)c1  83.9%
7. O=C(Nc1ccc(O)c(NS(=O)(=O)c2ccc(F)cc2)c1)c1ccc(-c2ccccc2)cc1 + Cc1cccc(N(C)C(=O)C2C(O)CCN2c2nc(C)cc(C(F)(F)F)c2C#N)c1  95%
8. O=C(c1cc(Cc2n[nH]c(=O)c3ccccc23)ccc1F)N1CCN(C(=O)C2CC2)CC1 + COC1C(OC(N)=O)C(O)C(Oc2ccc3c(O)c(NC(=O)c4ccc(O)c(CC=C(C)C)c4)c(=O)oc3c2C)OC1(C)C  110%

same assay, conditions: second compound 0.0316 µM; first compound 3.16 µM; stronger effect = lower value

In order of falling viability, T/C:
1. COc1cc2cc(C(=O)CCC(=O)O)sc2cc1OC + Cc1cccc(N(C)C(=O)C2C(O)CCN2c2nc(C)cc(C(F)(F)F)c2C#N)c1  85.1%
2. O=C(c1cc(Cc2n[nH]c(=O)c3ccccc23)ccc1F)N1CCN(C(=O)C2CC2)CC1 + COC1C(OC(N)=O)C(O)C(Oc2ccc3c(O)c(NC(=O)c4ccc(O)c(CC=C(C)C)c4)c(=O)oc3c2C)OC1(C)C  79.9%
3. COc1ccc([C@@H](O)c2cc(-c3ncnc4cc(N5CCOCC5)ccc34)c(F)cc2Cl)nn1 + COC1C(OC(N)=O)C(O)C(Oc2ccc3c(O)c(NC(=O)c4ccc(O)c(CC=C(C)C)c4)c(=O)oc3c2C)OC1(C)C  67.5%
4. Nc1ccn(C2OC(CO)C(O)C2(F)F)c(=O)n1 (configuration not stated) + Cc1cccc(N(C)C(=O)C2C(O)CCN2c2nc(C)cc(C(F)(F)F)c2C#N)c1  18.2%
